Measurements reported in US5306496A, “Antibiotics NK374186A, NK374186B, NK374186B3 and NK374186C3, process for producing the same, and use of the same” (Nippon Kayaku Kabushiki Kaisha, priority 1991, dated 1994).
≈ marks a conversion by molar mass, not a printed value.

Key:
[1] = Antibacterial activity, MIC by agar dilution method; assay type: cell-based; details: Mycobacterium luteus ATCC 9341; Muller/Hinton medium, 37° C., overnight
Protocol: (§1) The antibacterial and antifungal activities of each antibiotic are expressed in minimum inhibitory concentration (MIC) determined by the agar dilution method. In the antibacterial activity test, each test microorganism is inoculated onto a Muller/Hinton medium and cultured therein at 37° C. overnight to observe the growth of the microorganism. In the antifungal activity test, each test microorganism is inoculated onto a Czapek medium and cultured therein at 27° C. for 2 to 3 days, followed by the observation of the growth of the microorganism.

[2] = test system: Bacillus megaterium ATCC 14945; test: as above; assay type: cell-based; details: Muller/Hinton medium, 37° C., overnight
Protocol: as §1

[3] = test system: Bacillus subtilis ATCC 6633; test: as above; assay type: cell-based; details: Muller/Hinton medium, 37° C., overnight
Protocol: as §1

[4] = test system: Bacillus subtilis IAM 1072; test: as above; assay type: cell-based; details: Muller/Hinton medium, 37° C., overnight
Protocol: as §1

[5] = test system: Escherichia coli K-12; test: as above; assay type: cell-based; details: Muller/Hinton medium, 37° C., overnight
Protocol: as §1

[6] = test system: Escherichia coli NIHJ; test: as above; assay type: cell-based; details: Muller/Hinton medium, 37° C., overnight
Protocol: as §1

[7] = test system: Micrococcus flavus ATCC 10240; test: as above; assay type: cell-based; details: Muller/Hinton medium, 37° C., overnight
Protocol: as §1

[8] = test system: Staphylococcus aureus FDA 209P; test: as above; assay type: cell-based; details: Muller/Hinton medium, 37° C., overnight
Protocol: as §1

[9] = test system: Aspergillus niger IFO 4407; test: Antifungal activity, MIC by agar dilution method; assay type: cell-based; details: Czapek medium, 27° C., 2 to 3 days
Protocol: as §1

[10] = test system: Botrytis fabae IFO 6183; test: Antifungal activity, MIC by agar dilution method; assay type: cell-based; details: Czapek medium, 27° C., 2 to 3 days
Protocol: as §1

[11] = test system: Candida albicans IFO 1385; test: Antifungal activity, MIC by agar dilution method; assay type: cell-based; details: Czapek medium, 27° C., 2 to 3 days
Protocol: as §1

[12] = test system: Mucor javanicus IFO 4569; test: Antifungal activity, MIC by agar dilution method; assay type: cell-based; details: Czapek medium, 27° C., 2 to 3 days
Protocol: as §1

[13] = test system: Penicillium chrysogenum IFO 8645; test: Antifungal activity, MIC by agar dilution method; assay type: cell-based; details: Czapek medium, 27° C., 2 to 3 days
Protocol: as §1

[14] = test system: Rhizopus hanguchao IFO 4749; test: Antifungal activity, MIC by agar dilution method; assay type: cell-based; details: Czapek medium, 27° C., 2 to 3 days
Protocol: as §1

[15] = test system: Trycophyton mentagrophytes IFO 5466; test: Antifungal activity, MIC by agar dilution method; assay type: cell-based; details: Czapek medium, 27° C., 2 to 3 days
Protocol: as §1

[16] = test system: Bacilli, Staphylococcus and Micrococcus; test: Antibacterial activity, summary in words; assay type: cell-based; details: on Bacilli, agar dilution method
Protocol: as §1

[17] = test system: A2780; test: Cell growth suppressing activity (MTT method); assay type: cell-based; details: A2780, human ovarian cancer, 2 days
Protocol: (§2) Cells are incubated in an RPMI 1640 medium containing 10% of fetal calf serum at 37° C. under 5% of CO2. Then these cells are sowed in a 96-well plate and pre-incubated for 1 day, followed by the addition of each test compound. The treatment with the test compound was carried out for 2 days and the activity of suppressing the cell growth was evaluated by the MTT method.

[18] = test system: Li-7; test: Cell growth suppressing activity (MTT method); assay type: cell-based; details: Li-7, human hepatic cancer, 2 days
Protocol: as §2

[19] = test system: 2780^AD; test: Cell growth suppressing activity (MTT method), adriamycin-resistant strain; assay type: cell-based, human; details: adriamycin-resistant strain obtained from A2780, 2 days
Protocol: as §2

[20] = test system: Li-7, A2780 and 2780^AD; test: Cell growth suppressing activity (MTT method), all cell lines, in words; assay type: cell-based, human; details: each cell line
Protocol: as §2

[21] = test system: mammalian cells; test: Suppressing the growth of mammalian cells, in words; assay type: cell-based
[22] = test system: mouse lymphoblast formation with LPS (spleen cells); test: Mouse lymphoblast formation with LPS ([^3 H]-thymidine uptake); assay type: cell-based, BALB/C mouse; details: 72 hours, control = 100
Protocol: (§3) An RPMI 1640 medium containing 20% of fetal calf serum, 25 mM of Hepes buffer, 100 μg/ml of streptomycin and 100 U/ml of penicillin G is used. The incubation is carried out in a 96-well flat-bottomed microplate (COSTAR). As a mitogen, lipopolysaccharide (LPS) and concanavalin A (Con A) are used respectively at final concentrations of 100 μg/ml and 5 μg/ml.
(§4) The spleen of a BALB/C mouse (female,>20 weeks in age) is taken out and a single-cell suspension is prepared. After removing erythrocytes by hyper shock, the suspension is used as such for the treatment with LPS. For the treatment with Con A, on the other hand, the suspension is passed through a Nylon Fiber (a product of Wako Pure Chemicals, Inc.) for separating T cells. 2×10^5 /well of the spleen cells and each test compound of the concentration as specified above are added to thereby give a total volume of 0.2 ml/well, followed by incubation for 72 hours. 8 hours before the completion of the incubation, 37 KBq/well of [^3 H]-thymidine is added and the thymidine uptake in the cells is measured. The effect is evaluated based on the ratio of the [^3 H]-thymidine uptake of a test group to that of a control group ["Meneki Jikken Sosa-ho (Procedures of Immunological Tests)", ed. by Japan Assoc. of Immunol., pages 2267-2276].

[23] = test system: mouse lymphoblast formation with Con A (T cells); test: Mouse lymphoblast formation with Con A ([^3 H]-thymidine uptake); assay type: cell-based, BALB/C mouse; details: Con A 5 μg/ml, 72 hours, control = 100
Protocol: as §3, §4

[24] = test system: mouse lymphoblast formation with LPS and Con A; test: Mouse lymphoblast formation with LPS and Con A, summary in words; assay type: cell-based, BALB/C mouse
Protocol: as §3, §4

[25] = test system: transplanted section/host reaction (GVH); test: Transplanted section/host reaction (GVH), spleen weighing method; assay type: in vivo, BDF mouse; details: for Spleen/total body weight ± S.D. / Index (spleen/total body weight): subcutaneous, 3 days; for Spleen/total body weight ± S.D.: seventh day after transplantation; for Index (spleen/total body weight): untreated = 1.00
Protocol: This test is carried out in accordance with the spleen weighing method of Ford et al. [Ford, W. L., et al., Handbook of Experimental Immunology 30 (ed. by Weir, D. M.), Blackwell Scientific Publications, (1978), page 1]. 5×10^6 spleen cells obtained from a donor C57BL/6 mouse (male, aged 8 weeks) are transplanted into the peritoneal cavity of a BDF mouse (male, aged 7 weeks) which is the Fl hybrid receptor. At the same time, NK374186 and a control drug are dissolved in a solvent (0.25 % gum arabic) and subcutaneously injected into the dorsum of the receptor mouse. As a control, the solvent alone is also subcutaneously injected into the dorsum of the mouse. The same administration is effected on the next day and on the following day. On the seventh day after the transplantation, the spleen of the animal is weighed.

[26] = test system: CDF-1 mice; test: Toxicity, repeated intraperitoneal administration; assay type: in vivo; details: 100 mg/kg intraperitoneal once a day for 10 days
Protocol: 100 mg/kg of NK374186A and NK374186B are intraperitoneally administered to CDF-1 mice (male, aged 8 weeks) repetitively once a day for 10 days. Each test compound is administered in the form of a solution in 3.5% DMSO+6.5% Tween+90% physiological saline.

[27] = Solubility; assay type: physicochemical

Compound: C=CC(C)(C)[C@H](NC(=O)[C@H](C)[C@H](O)[C@H](C)[C@H](O)CCCCCCCCCCCCC)C(=O)N[C@H](C(=O)N[C@@H](C=O)C(=O)O)[C@@H](C)O [NK374186B]
- MIC [1]: > 100 µg/mL
- MIC [2]: 6.25 µg/mL (≈ 9.53 µM)
- MIC [3]: > 100 µg/mL
- MIC [4]: 6.25 µg/mL (≈ 9.53 µM)
- MIC [5]: > 100 µg/mL
- MIC [6]: > 100 µg/mL
- MIC [7]: 3.13 µg/mL (≈ 4.77 µM)
- MIC [8]: 3.13 µg/mL (≈ 4.77 µM)
- MIC [9]: > 100 µg/mL
- MIC [10]: > 100 µg/mL
- MIC [11]: > 100 µg/mL
- MIC [12]: > 100 µg/mL
- MIC [13]: > 100 µg/mL
- MIC [14]: > 100 µg/mL
- MIC [15]: > 100 µg/mL
- antibacterial activity [16]: potent antibacterial activity on Bacilli, Staphylococcus and Micrococcus
- IC50 [17]: 6.6 µg/mL (≈ 10.1 µM)
- IC50 [18]: 7.0 µg/mL (≈ 10.7 µM)
- IC50 [19]: 33 µg/mL (≈ 50.3 µM)
- cell growth suppression [20]: suppress the growth of each cell line
- activity of suppressing the growth of mammalian cells [21]: weak activity of suppressing the growth of mammalian cells
- Function index, LPS ([22]; 0.1 μg/ml, LPS 100 μg/ml): 156.3%
- Function index, LPS ([22]; 1 μg/ml, LPS 100 μg/ml): 156.3%
- Function index, LPS ([22]; 10 μg/ml, LPS 100 μg/ml): 94.7%
- Function index, LPS ([22]; 100 μg/ml): 0.8%
- Function index, Con A ([23]; 0.1 μg/ml): 133.7%
- Function index, Con A ([23]; 1 μg/ml): 168.8%
- Function index, Con A ([23]; 10 μg/ml): 111.6%
- Function index, Con A ([23]; 100 μg/ml): 31.5%
- lymphoblast formation ([24]; at a concentration of 10 μg/ml or above): potently suppress the same at a concentration of 10 μg/ml or above
- lymphoblast formation ([24]; at a lower concentration): promote the lymphoblast formation with LPS and Con A at a lower concentration
- Spleen/total body weight ± S.D. ([25]; 0.5 mg/kg): 8.24 ± 1.54 ×10^-3
- Index (spleen/total body weight) ([25]; 0.5 mg/kg): 1.74
- Spleen/total body weight ± S.D. ([25]; 5 mg/kg): 11.32 ± 3.61 ×10^-3
- Index (spleen/total body weight) ([25]; 5 mg/kg, * printed): 2.40
- Spleen/total body weight ± S.D. ([25]; 50 mg/kg): 12.63 ± 3.37 ×10^-3
- Index (spleen/total body weight) ([25]; 50 mg/kg, * (A), ** (B) printed): 2.67
- GVH reaction ([25]; in words): significantly enhanced
- spleen/total body weight ratio ([25]; in words): increased depending on the dose
- death of mice [26]: none of these compounds causes the death of mice
- toxicity [26]: low toxicity
- clinical conditions ([26]; versus solvent control group): no difference from those of the solvent control group
- solubility [27]: soluble in lower alcohols, chloroform and ethyl acetate
